17 molecules from patent US11365196B2, “FGFR inhibitor and application thereof” (Betta Pharmaceuticals Co., Ltd., priority 2017, dated 2022) can be followed below.

Where two headings read alike, the source gives them in different places.

Assay [1] addresses FGFR4 (Homo sapiens (Human), UniProt P22455). In words: Kinase assay Method 1, mobility shift assay. Type of assay: biochemical. The note with it: ATP at Km, numeric values, read-out: IC50(nM) value of compounds FGFR4.
For assay [2], the system named is NCI-H1581 cells. As to the kind of experiment: Cell proliferation assay on NCI-H1581 (Table 7). Type of assay: cell-based, human. The note with it: Homo sapiens. An excerpt: Test method: adding the appropriate volume of whole medium and the cells was suspended.
Assay [3] deals with FGFR1 (Homo sapiens (Human), UniProt P11362). As to the kind of experiment: Kinase assay Method 1, mobility shift assay. The note with it: read-out: IC50(nM) value of compounds FGFR1; mobility shift assay, ATP at Km; class symbols.
Description: Method 1: The inhibitory activity of some compounds of the present disclosure against FGFR1, FGFR2, FGFR3, FGFR4, KDR was tested by mobility shift assay (concentration of ATP is Km value).
Preparing of compounds: dilute test compounds to specific concentration using 100% DMSO
The mark [4] stands for this setting: NCI-H1581, read-out: IC50(nM) value of compounds on NCI-H1581 cells.
The mark [5] stands for this setting: NCI-H1581, CellTiter 96 AQueous (144 hrs) or CellTiter Glo (96 hrs), class symbols, read-out: IC50(nM) value of compounds on NCI-H1581 cells.

Chain of FGFR4 (P22455 22-802): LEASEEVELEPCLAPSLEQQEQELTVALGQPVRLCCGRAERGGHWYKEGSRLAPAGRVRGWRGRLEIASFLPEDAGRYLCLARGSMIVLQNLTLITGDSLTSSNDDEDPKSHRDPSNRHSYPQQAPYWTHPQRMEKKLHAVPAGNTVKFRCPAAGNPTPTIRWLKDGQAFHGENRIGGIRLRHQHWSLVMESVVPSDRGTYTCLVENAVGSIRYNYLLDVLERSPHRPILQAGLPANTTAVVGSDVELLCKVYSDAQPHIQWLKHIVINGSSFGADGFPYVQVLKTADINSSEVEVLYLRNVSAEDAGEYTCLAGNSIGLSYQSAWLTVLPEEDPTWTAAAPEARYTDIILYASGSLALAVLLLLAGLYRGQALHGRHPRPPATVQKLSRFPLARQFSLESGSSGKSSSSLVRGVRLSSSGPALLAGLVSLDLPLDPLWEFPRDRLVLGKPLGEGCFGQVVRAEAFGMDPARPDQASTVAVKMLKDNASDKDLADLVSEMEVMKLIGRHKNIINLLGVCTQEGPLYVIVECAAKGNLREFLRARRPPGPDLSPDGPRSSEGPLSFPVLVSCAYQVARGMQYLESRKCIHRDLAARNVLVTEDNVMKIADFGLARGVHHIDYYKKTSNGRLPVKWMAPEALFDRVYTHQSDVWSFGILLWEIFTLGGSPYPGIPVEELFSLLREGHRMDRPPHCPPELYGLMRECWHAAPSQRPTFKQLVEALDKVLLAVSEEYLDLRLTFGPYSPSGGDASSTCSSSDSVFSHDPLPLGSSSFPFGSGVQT
Chain of FGFR1 (P11362 22-822): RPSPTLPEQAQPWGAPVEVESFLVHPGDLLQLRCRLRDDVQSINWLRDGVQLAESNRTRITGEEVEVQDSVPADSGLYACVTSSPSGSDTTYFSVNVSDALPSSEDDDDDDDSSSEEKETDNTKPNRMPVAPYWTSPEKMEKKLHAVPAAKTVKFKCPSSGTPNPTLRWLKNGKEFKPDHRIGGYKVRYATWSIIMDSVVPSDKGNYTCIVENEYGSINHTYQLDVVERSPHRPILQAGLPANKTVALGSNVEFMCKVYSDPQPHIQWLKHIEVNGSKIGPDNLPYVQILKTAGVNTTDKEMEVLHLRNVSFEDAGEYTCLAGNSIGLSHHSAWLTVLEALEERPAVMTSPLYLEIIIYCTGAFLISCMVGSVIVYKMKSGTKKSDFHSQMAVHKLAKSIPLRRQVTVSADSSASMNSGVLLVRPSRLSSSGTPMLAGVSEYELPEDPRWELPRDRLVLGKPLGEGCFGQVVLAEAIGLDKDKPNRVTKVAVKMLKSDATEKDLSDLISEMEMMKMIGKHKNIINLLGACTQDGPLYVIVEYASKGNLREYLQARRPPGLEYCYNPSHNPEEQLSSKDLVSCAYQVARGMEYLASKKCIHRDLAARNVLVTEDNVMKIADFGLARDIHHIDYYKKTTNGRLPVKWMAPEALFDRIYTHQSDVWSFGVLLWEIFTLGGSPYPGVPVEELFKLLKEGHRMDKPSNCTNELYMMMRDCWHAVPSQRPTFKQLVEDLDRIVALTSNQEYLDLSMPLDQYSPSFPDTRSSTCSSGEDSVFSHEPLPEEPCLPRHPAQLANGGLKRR

As usually defined, the IC50 is the concentration that inhibits the measured activity by half. Consider `COc1cc(OC)c(Cl)c(-c2cc3cnc(Nc4ccc(CN5CCN(C)CC5)cc4)nc3n3cnnc23)c1` [Compound 46, 6-(2-chloro-3,5-dimethoxyphenyl)-N-(4-((4-methylpiperazin-1-yl)methyl)phenyl)-[1,2,4]triazolo[4′,3′:1,6]pyrido[2,3-d]pyrimidin-2-amine], for which the IC50 in assay [1] was determined as 56 nM; in assay [2] (setting [4]), 2.4 nM.

Turning to `COc1cc(OC)c(Cl)c(-c2cc3cnc(Nc4ccc(N5CC6CCC(C5)N6)cc4)nc3n3cnnc23)c1` [Compound 51, N-(4-(3,8-diazabicyclo[3.2.1]octan-3-yl)phenyl)-6-(2-chloro-3,5-dimethoxyphenyl)[1,2,4]triazolo[4′,3′:1,6]pyrido[2,3-d]pyrimidin-2-amine], the IC50 in assay [1] was found to be 42 nM; in assay [2] (setting [4]) it was 1.4 nM.

Take `COc1cc(OC)c(Cl)c(-c2cc3cnc(Nc4ccc5c(c4)CCNC5)nc3n3cnnc23)c1` [Compound 53, 6-(2-chloro-3,5-dimethoxyphenyl)-N-(1,2,3,4-tetrahydroisoquinolin-6-yl)-[1,2,4]triazolo[4′,3′:1,6]pyrido[2,3-d]pyrimidin-2-amine]: the IC50 worked out at 14 nM in assay [1] and 0.7 nM in assay [2] (setting [4]).

With `COc1cc(OC)c(Cl)c(-c2cc3cnc(Nc4ccc(N5C[C@@H](C)N[C@@H](C)C5)c(F)c4)nc3n3cnnc23)c1` [Compound 56, 6-(2-chloro-3,5-dimethoxyphenyl)-N-(4-((3S,5R)-3,5-dimethylpiperazin-1-yl)-3-fluorophenyl)-[1,2,4]triazolo[4′,3′:1,6]pyrido[2,3-d]pyrimidin-2-amine], the IC50 in assay [1] amounted to 51 nM; in assay [2] (setting [4]), 1.2 nM.

Turning to `COc1cc(OC)c(Cl)c(-c2cc3cnc(Nc4ccc(N5CCC(N6CCOCC6)CC5)cc4)nc3n3cnnc23)c1Cl` [Compound 65, 6-(2,6-dichloro-3,5-dimethoxyphenyl)-N-(4-(4-morpholinopiperidin-1-yl)phenyl)-[1,2,4]triazolo[4′,3′:1,6]pyrido[2,3-d]pyrimidin-2-amine], the IC50 in assay [1] was 6.7 nM; in assay [2] (setting [4]) it was 0.6 nM.

As for `CCN1CCN(c2ccc(Nc3ncc4cc(-c5cc6[nH]c(C)nc6cc5Cl)c5nncn5c4n3)cc2)CC1` [Compound 67, 6-(5-chloro-2-methyl-1H-benzo[d]imidazol-6-yl)-N-(4-(4-ethylpiperazin-1-yl)phenyl)-[1,2,4]triazolo[4′,3′:1,6]pyrido[2,3-d]pyrimidin-2-amine], the IC50 in assay [1] was 90 nM; in assay [2] (setting [4]), 1 to 10 nM.

Regarding `Cc1nc2cc(Cl)c(-c3cc4cnc(Nc5ccc(N6CCC(N(C)C)CC6)cc5)nc4n4cnnc34)cc2[nH]1` [Compound 78, 6-(5-chloro-2-methyl-1H-benzo[d]imidazol-6-yl)-N-(4-(4-(dimethylamino)piperidin-1-yl)phenyl)-[1,2,4]triazolo[4′,3′:1,6]pyrido[2,3-d]pyrimidin-2-amine], the IC50 in assay [1] worked out at 600 nM; in assay [2] (setting [4]), 5.3 nM.

For the molecule `Cc1nc2cc(Cl)c(-c3cc4cnc(Nc5ccc(N6CCOCC6)cc5)nc4n4cnnc34)cc2[nH]1` [Compound 81, 6-(5-chloro-2-methyl-1H-benzo[d]imidazol-6-yl)-N-(4-morpholinophenyl)-[1,2,4]triazolo[4′,3′:1,6]pyrido[2,3-d]pyrimidin-2-amine], the IC50 in assay [1] worked out at 191 nM; in assay [2] (setting [4]), 9.3 nM.

For the molecule `COc1cc(OC)c(Cl)c(-c2cc3cnc(Nc4ccc(N5CC[N+]6(O)CCC[C@@H]6C5)cc4)nc3n3cnnc23)c1` (stereo partly drawn) [Compound 100, (8aR)-2-(4-((6-(2-chloro-3,5-dimethoxyphenyl)-[1,2,4]triazolo[4′,3′:1,6]pyrido[2,3-d]pyrimidin-2-yl)amino)phenyl)octahydro-5H-pyrrolo[1,2-a]pyrazine 5-oxide], the half-maximal inhibitory concentration (IC50) is 10 to 100 nM in assay [2] (setting [5]) and less than 1 nM in assay [3].

For `COc1cc(OC)c(Cl)c(-c2cc3cnc(Nc4ccc(N5CCN(C6CCCC6)CC5)cc4)nc3n3cnnc23)c1` [Compound 104, 6-(2-chloro-3,5-dimethoxyphenyl)-N-(4-(4-cyclopentylpiperazin-1-yl)phenyl)-[1,2,4]triazolo[4′,3′:1,6]pyrido[2,3-d]pyrimidin-2-amine], the IC50 in assay [2] (setting [5]) was 1 to 10 nM; in assay [3] it was less than 1 nM.

For `COc1cc(OC)c(Cl)c(-c2cc3cnc(Nc4ccc(N5CCN(C(C)=O)CC5)cc4)nc3n3cnnc23)c1` [Compound 106, 6-(2-chloro-3,5-dimethoxyphenyl)-N-(4-(4-acetylpiperazine-1-yl)phenyl)-[1,2,4]triazolo[4′,3′:1,6]pyrido[2,3-d]pyrimidin-2-amine], the half-maximal inhibitory concentration (IC50) in assay [2] (setting [5]) is 1 to 10 nM; in assay [3], less than 1 nM.

`COc1cc(OC)c(Cl)c(-c2cc3cnc(Nc4ccc(N5CCN(C(=O)N(C)C)CC5)cc4)nc3n3cnnc23)c1` [Compound 107, 4-(4-((6-(2-chloro-3,5-dimethoxyphenyl)-[1,2,4]triazolo[4′,3′:1,6]pyrido[2,3-d]pyrimidin-2-yl)amino)phenyl)-N,N-dimethylpiperazine-1-carboxamide]: the IC50 in assay [2] (setting [5]) is 1 to 10 nM; in assay [3], less than 1 nM.

As to `COc1cc(OC)c(Cl)c(-c2cc3cnc(Nc4ccc(N5CC6(CN(C(=O)N(C)C)C6)C5)cc4)nc3n3cnnc23)c1` [Compound 108, 6-(4-((6-(2-chloro-3,5-dimethoxyphenyl)-[1,2,4]triazolo[4′,3′:1,6]pyrido[2,3-d]pyrimidin-2-yl)amino)phenyl)-N,N-dimethyl-2,6-diazaspiro[3.3]heptane-2-carboxamide], the IC50 in assay [2] (setting [5]) was 10 to 100 nM; in assay [3], more than 10 nM.

In the case of `C=CC(=O)Nc1ccc(Cc2nc3c(-c4cc(OC)cc(OC)c4Cl)cc4cnc(NCCN5CCOCC5)nc4n3n2)cc1` [Compound 112, N-(4-((4-(2-chloro-3,5-dimethoxyphenyl)-8-((2-morpholinoethyl)amino)-[1,2,4]triazolo[1′,5′:1,6]pyrido[2,3-d]pyrimidin-2-yl)methyl)phenyl)acrylamide], the IC50 in assay [2] (setting [5]) was 10 to 100 nM; in assay [3], more than 100 nM.

With `C=CC(=O)N1CCN(CCCc2nnc3c(-c4cc(OC)cc(OC)c4Cl)cc4cnc(NC)nc4n23)CC1` [Compound 113, 1-(4-((6-(2-chloro-3,5-dimethoxyphenyl)-2-(methylamino)-[1,2,4]triazolo[4′,3′:1,6]pyrido[2,3-d]pyrimidin-9-yl)propyl)piperazin-1-yl)prop-2-en-1-one], the IC50 in assay [2] (setting [5]) was 10 to 100 nM; in assay [3] it was more than 10 nM.

For `C=CC(=O)N1CCN(CCc2nnc3c(-c4cc(OC)cc(OC)c4Cl)cc4cnc(NC)nc4n23)CC1` [Compound 114, 1-(4-(2-(6-(2-chloro-3,5-dimethoxyphenyl)-2-(methylamino)-[1,2,4]triazolo[4′,3′:1,6]pyrido[2,3-d]pyrimidin-9-yl)ethyl)piperazin-1-yl)prop-2-en-1-one], the half-maximal inhibitory concentration (IC50) in assay [2] (setting [5]) and in assay [3] was more than 100 nM each time.

Regarding `C=CC(=O)N1CCN(CCCc2nc3c(-c4cc(OC)cc(OC)c4Cl)cc4cnc(NC)nc4n3n2)CC1` [Compound 115, 1-(4-(3-(4-(2-chloro-3,5-dimethoxyphenyl)-8-(methylamino)-[1,2,4]triazolo[1′,5′:1,6]pyrido[2,3-d]pyrimidin-2-yl)propyl)piperazin-1-yl)prop-2-en-1-one], the IC50 in assay [1] is 6.8 nM.
